Results as given in patent US9546193B2, “Compositions and methods for 18F-fluorodeoxyglycosylamines” (The Regents of the University of California, priority 2013, dated 2017).
Where two headings read alike, the source gives them in different places. Each block holds one compound with its values, some of them ahead of it.

What was measured:
Format in all cases: binding
[1] = tested on: postmortem human brain Aβ-amyloid sites
Description: (§1) The brain sections were air dried, exposed overnight on a phosphor film, and then placed on the Phosphor Autoradiographic Imaging System/Cyclone Storage Phosphor System (Packard Instruments Co).
as §1

Aβ-Amyloid plaques = assay: Human brain homogenate assay, displacement of 3H-PIB; settings: 3H-PIB displacement curve; rFDGBTA 10^−11 to 10^−4 M; PBS buffer, 10% alcohol, pH 7.4
Method: rFDGBTA: Reductive amination was carried out at room temperature using an anhydrous solution of molecular sieves, methanol and acetic acid. The yield for the reduced rFDGBTA was 94%. Human brain homogenate assay of rFDGBTA for Aβ-Amyloid plaques was investigated. The homogenate was suspended in different concentrations of rFDGBTA (10^−11 to 10^−4M) in the assay buffer (PBS buffer, 10% alcohol, pH 7.4). Nonspecific binding was determined by including […]. Total assay volume was 0.25 ml.

human Aβ-amyloid plaques = assay: 3H-PIB competition autoradiography on postmortem AD brain sections; settings: 10 μM competitor; postmortem AD human brain slices; preliminary studies
Method: ^3H-PIB Binding: Human hippocampus sections (7 μm thick) were preincubated in 10% alcohol PBS buffer for 10 minutes. The brain sections were placed in a glass chamber and incubated with [^3H]-PIB (2 μCi/cc) in 10% alcohol PBS buffer, pH 7.4 at 37° C. for 1 hr. The slices were then washed with cold 10% alcohol PBS buffer (2×3 mins), cold deionized water 1 min, respectively. The brain sections were air dried, exposed overnight on a phosphor film, and then placed on the Phosphor Autoradiographic imaging System/Cyclone Storage Phosphor System (Packard Instruments Co). Regions of interest (ROIs) were drawn on the slices and the extent of binding of ^3H-PIB was measured with DLU/mm2 using the OptiQuant acquisition and analysis program (Packard Instruments Co).
Since FDGBTA is an analog of PIB, which is known to bind to human Aβ-amyloid plaques, the inventors tested competition of both PIB and FDGBTA with postmortem human brain Aβ-amyloid sites labeled with ^3H-PIB as is illustrated in Panel A of FIG. 5, with the corresponding photomicrographs in Panel B of FIG. 5.

Compound: [11CH3]Nc1ccc(-c2nc3ccc(O)cc3s2)cc1 [11C-PIB]
- binding to AD brain grey matter / Aβ-amyloid plaques (in words) ([1]; postmortem AD human brain sections, autoradiography): significant binding
- ratio of binding, AD brain versus control subjects (grey matter) ([1]; postmortem human hippocampus sections, autoradiography): 6

Compound: 2-^18F-Fluorodeoxyglucose [18F-FDG]
- binding to AD brain grey matter / Aβ-amyloid plaques (in words) [1]: did not exhibit any binding

- binding compared to PIB (times weaker) (Aβ-Amyloid plaques): ~100 times
Compound: OCC(O)C(O)C(O)C(F)CNc1ccc(-c2nc3ccc(O)cc3s2)cc1 (centres unmarked) [rFDGBTA]

- reduction of 3H-PIB binding in the grey matter areas (human Aβ-amyloid plaques): 80%
Compound: OCC1OC(Nc2ccc(-c3nc4ccc(O)cc4s3)cc2)C(F)C(O)C1O (centres unmarked) [FDGBTA]
